Results published in patent publication US20260257998A1, “ERR MODULATORS” (University of Health Sciences and Pharmacy in St. Louis, priority 2023, published 2026).

How the values were obtained:
ERRγ = target: T1, ERRγ (Homo sapiens, UniProt P62508); test: ERRE luciferase reporter assay in HEK293 cells transfected with pcDNA3.1 ERRγ; assay type: cell-based; design: key to EC50 (ERRγ): ***<1 μM; **1-5 μM; *>5 μM; i.a. (inactive); conditions: 24 hours treatment, luciferase activity
T1 construct: expressed in transfected cells; host or cells: HEK293
T1 sequence (P62508 1-458): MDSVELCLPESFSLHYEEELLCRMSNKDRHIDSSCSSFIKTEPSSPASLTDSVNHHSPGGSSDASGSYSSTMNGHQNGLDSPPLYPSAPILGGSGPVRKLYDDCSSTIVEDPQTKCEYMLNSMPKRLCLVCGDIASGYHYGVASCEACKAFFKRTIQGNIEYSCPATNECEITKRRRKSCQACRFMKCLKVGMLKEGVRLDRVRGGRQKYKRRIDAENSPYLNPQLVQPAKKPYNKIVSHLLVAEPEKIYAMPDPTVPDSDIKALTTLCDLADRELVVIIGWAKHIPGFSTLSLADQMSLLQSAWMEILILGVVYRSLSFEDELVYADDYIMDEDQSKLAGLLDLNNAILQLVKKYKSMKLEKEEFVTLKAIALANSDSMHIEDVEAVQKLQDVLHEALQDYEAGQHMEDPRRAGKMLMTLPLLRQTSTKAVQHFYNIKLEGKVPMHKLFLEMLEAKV
Experimental: (§1) HEK293 cells were maintained in Dulbecco's modified Eagles medium (DMEM) supplemented with 10% fetal bovine serum at 37° C. under 5% CO2. […] Cells were transfected with ERRE reporter construct and pcDNA3.1 ERRα or ERRγ. Twenty-four-hours post-transfection, the cells were treated with vehicle or compound (various concentrations) for 24 hours (4 wells per dose). Luciferase activity was measured using the One-Glo Tox luciferase reporter assay system (Promega) and […] were calculated using GraphPad Prism software.

ERRα = target: T2, ERRα (Homo sapiens, UniProt P11474); test: ERRE luciferase reporter assay in HEK293 cells transfected with pcDNA3.1 ERRα; assay type: cell-based; design: key to EC50 (ERRα): ***<1 μM; **1-5 μM; *>5 μM; i.a. (inactive); conditions: 24 hours treatment, luciferase activity
T2 construct: expressed in transfected cells; host or cells: HEK293
T2 sequence (P11474 1-423): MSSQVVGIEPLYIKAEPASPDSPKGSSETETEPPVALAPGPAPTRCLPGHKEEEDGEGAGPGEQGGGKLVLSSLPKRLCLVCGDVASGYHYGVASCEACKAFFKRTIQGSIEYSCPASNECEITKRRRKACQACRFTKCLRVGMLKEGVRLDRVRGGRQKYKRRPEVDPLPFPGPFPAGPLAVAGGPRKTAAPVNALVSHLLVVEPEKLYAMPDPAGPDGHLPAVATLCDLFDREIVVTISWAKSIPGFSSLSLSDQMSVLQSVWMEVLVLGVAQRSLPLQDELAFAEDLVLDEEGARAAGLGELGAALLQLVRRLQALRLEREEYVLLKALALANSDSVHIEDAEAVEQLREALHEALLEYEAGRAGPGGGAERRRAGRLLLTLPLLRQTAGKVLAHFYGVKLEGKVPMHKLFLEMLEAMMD
Experimental: as §1

SMILES | EC50 (ERRγ) (ERRγ) | EC50 (ERRα) | EC50 (ERRγ) | EC50 (ERRα) (ERRα)
Oc1ccccc1C1CC(c2ccncc2)=NN1 (stereo not shown) [Entry 2, 2-(3-(pyridin-4-yl)-4,5-dihydro-1H-pyrazol-5-yl)phenol] |  |  | > 5000 nM | i.a.
Oc1cccc(C2=NNC(c3cccc(O)c3)C2)c1 (stereo not shown) [Entry 3, 3,3′-(4,5-dihydro-1H-pyrazole-3,5-diyl)diphenol] |  | 1000 to 5000 nM | 1000 to 5000 nM | 
Oc1ccccc1C1CC(c2cc(C(F)(F)F)cc(C(F)(F)F)c2)=NN1 (stereo not shown) [Entry 6, 2-(3-(3,5-bis(trifluoromethyl)phenyl)-4,5-dihydro-1H-pyrazol-5-yl)phenol] | i.a. |  |  | i.a.
Oc1cccc(C2CC(c3ccc(Cl)cc3)=NN2)c1 (stereo not shown) [Entry 10, 3-(3-(4-Chlorophenyl)-4,5-dihydro-1H-pyrazol-5-yl)phenol] |  | 1000 to 5000 nM | < 1000 nM | 
CC(=O)N1N=C(c2ccc(Br)cc2)CC1c1ccccc1O (stereo not shown) [Entry 12, 1-(3-(4-Bromophenyl)-5-(2-hydroxyphenyl)-4,5-dihydro-1H-pyrazol-1-yl)ethan-1-one] | i.a. |  |  | i.a.
COc1cccc(C2=NN(C(C)=O)C(c3ccccc3O)C2)c1 (stereo not shown) [Entry 13, 1-(5-(2-Hydroxyphenyl)-3-(3-methoxyphenyl)-4,5-dihydro-1H-pyrazol-1-yl)ethan-1-one] | i.a. |  |  | i.a.
CC(=O)N1N=C(c2cccc(C)c2)CC1c1ccccc1O (stereo not shown) [Entry 14, 1-(5-(2-Hydroxyphenyl)-3-(m-tolyl)-4,5-dihydro-1H-pyrazol-1-yl)ethan-1-one] | i.a. |  |  | i.a.
CC(=O)N1N=C(c2ccccc2O)CC1c1ccccc1O (stereo not shown) [Entry 15, 1-(3,5-bis(2-hydroxyphenyl)-4,5-dihydro-1H-pyrazol-1-yl)ethan-1-one] | i.a. |  |  | i.a.
Oc1ccccc1C1CC(c2cccs2)=NN1 (stereo not shown) [Entry 17, 2-(3-(Thiophen-2-yl)-4,5-dihydro-1H-pyrazol-5-yl)phenol] |  | > 5000 nM | > 5000 nM | 
FC(F)(F)c1cc(C2=NNC(c3ccc4ccccc4c3)C2)cc(C(F)(F)F)c1 (stereo not shown) [Entry 20, 3-(3,5-bis(trifluoromethyl)phenyl)-5-(naphthalen-2-yl)-4,5-dihydro-1H-pyrazole] | i.a. |  |  | i.a.
Oc1ccccc1C1=NNC(c2ccc3ccccc3c2)C1 (stereo not shown) [Entry 21, 2-(5-(Naphthalen-2-yl)-4,5-dihydro-1H-pyrazol-3-yl)phenol] |  |  | < 1000 nM | i.a.
CCc1ccccc1C1CC(c2ccccc2O)=NN1 (stereo not shown) [Entry 22, 2-(5-(2-Ethylphenyl)-4,5-dihydro-1H-pyrazol-3-yl)phenol] | i.a. |  |  | i.a.
Cc1cccc(C2=NNC(c3ccccc3O)C2)c1 (stereo not shown) [Entry 23, 2-(3-(m-Tolyl)-4,5-dihydro-1H-pyrazol-5-yl)phenol] |  | < 1000 nM | 1000 to 5000 nM | 
Oc1ccccc1C1CC(c2ccc(Br)cc2)=NN1 (stereo not shown) [Entry 24, 2-(3-(4-Bromophenyl)-4,5-dihydro-1H-pyrazol-5-yl)phenol] |  | < 1000 nM | < 1000 nM | 
Oc1ccccc1C1CC(c2ccccn2)=NN1 (stereo not shown) [Entry 25, 2-(3-(Pyridin-2-yl)-4,5-dihydro-1H-pyrazol-5-yl)phenol] |  | > 5000 nM | > 5000 nM | 
Oc1ccccc1C1CC(c2cccnc2)=NN1 (stereo not shown) [Entry 26, 2-(3-(Pyridin-3-yl)-4,5-dihydro-1H-pyrazol-5-yl)phenol] |  | > 5000 nM | > 5000 nM | 
Cc1ccc(C2=NNC(c3ccccc3O)C2)cc1 (stereo not shown) [Entry 28, 2-(3-(p-tolyl)-4,5-dihydro-1H-pyrazol-5-yl)phenol] | i.a. |  |  | i.a.
Oc1ccccc1C1CC(c2cccc(Br)c2)=NN1 (stereo not shown) [Entry 29, 2-(3-(3-Bromophenyl)-4,5-dihydro-1H-pyrazol-5-yl)phenol] |  | > 5000 nM | > 5000 nM | 
Oc1c(F)cccc1C1CC(c2ccc(Br)cc2)=NN1 (stereo not shown) [Entry 32, 2-(3-(4-Bromophenyl)-4,5-dihydro-1H-pyrazol-5-yl)-6-fluorophenol] | i.a. |  |  | i.a.
Oc1c(Br)cccc1C1CC(c2ccc(Br)cc2)=NN1 (stereo not shown) [Entry 35, 2-Bromo-6-(3-(4-bromophenyl)-4,5-dihydro-1H-pyrazol-5-yl)phenol] |  | 1000 to 5000 nM | 1000 to 5000 nM | 
COc1cccc(C2CC(c3ccc(Br)cc3)=NN2)c1O (stereo not shown) [Entry 36, 2-(3-(4-Bromophenyl)-4,5-dihydro-1H-pyrazol-5-yl)-6-methoxyphenol] |  | < 1000 nM | < 1000 nM | 
Cc1ccc(C2CC(c3ccccc3)=NN2)c(O)c1 (stereo not shown) [Entry 38, 5-Methyl-2-(3-phenyl-4,5-dihydro-1H-pyrazol-5-yl)phenol] |  | 1000 to 5000 nM | 1000 to 5000 nM | 
Oc1ccccc1C1CC(c2ccc(C(F)(F)F)cc2)=NN1 (stereo not shown) [Entry 40, 2-(3-(4-(Trifluoromethyl)phenyl)-4,5-dihydro-1H-pyrazol-5-yl)phenol] |  | < 1000 nM | 1000 to 5000 nM | 

Next, values leading:

EC50 (ERRγ) (ERRγ) | EC50 (ERRα) | EC50 (ERRγ) | EC50 (ERRα) (ERRα) | SMILES
i.a. | > 5000 nM |  |  | Oc1ccccc1C1CC(c2cccc(OC(F)(F)F)c2)=NN1 (stereo not shown) [Entry 1, o-[3-(m-Trifluoromethoxy-phenyl)-2-pyrazolin-5-yl]phenol]
i.a. |  |  | i.a. | Oc1ccccc1C1CC(c2ccccc2OC(F)(F)F)=NN1 (stereo not shown) [Entry 4, 2-(3-(2-(trifluoromethoxy)phenyl)-4,5-dihydro-1H-pyrazol-5-yl)phenol]
i.a. |  |  | i.a. | Oc1cccc(C2CC(c3cc(C(F)(F)F)cc(C(F)(F)F)c3)=NN2)c1 (stereo not shown) [Entry 5, 3-(3-(3,5-bis(trifluoromethyl)phenyl)-4,5-dihydro-1H-pyrazol-5-yl)phenol]
 | > 5000 nM | > 5000 nM |  | Oc1ccc(C2CC(c3ccc(Cl)cc3)=NN2)cc1 (stereo not shown) [Entry 7, 4-(3-(4-Chlorophenyl)-4,5-dihydro-1H-pyrazol-5-yl)phenol]
i.a. |  |  | i.a. | Oc1ccc(C2CC(c3cc(C(F)(F)F)cc(C(F)(F)F)c3)=NN2)cc1 (stereo not shown) [Entry 9, 4-(3-(3,5-bis(trifluoromethyl)phenyl)-4,5-dihydro-1H-pyrazol-5-yl)phenol]
i.a. |  |  | i.a. | CC(=O)N1N=C(c2ccccc2Cl)CC1c1ccccc1O (stereo not shown) [Entry 16, 1-(3-(2-Chlorophenyl)-5-(2-hydroxyphenyl)-4,5-dihydro-1H-pyrazol-1-yl)ethan-1-one]
 | 1000 to 5000 nM | 1000 to 5000 nM |  | Oc1cccc(C2CC(c3ccccc3O)=NN2)c1 (stereo not shown) [Entry 18, 2-(5-(3-Hydroxyphenyl)-4,5-dihydro-1H-pyrazol-3-yl)phenol]
i.a. |  |  | i.a. | Cc1ccccc1C1=NNC(c2ccccc2O)C1 (stereo not shown) [Entry 27, 2-(3-(o-Tolyl)-4,5-dihydro-1H-pyrazol-5-yl)phenol]
 | > 5000 nM | > 5000 nM |  | Oc1ccccc1C1=NNC(c2ccccc2O)C1 (stereo not shown) [Entry 30, 2,2′-(4,5-Dihydro-1H-pyrazole-3,5-diyl)diphenol]
 | 1000 to 5000 nM | > 5000 nM |  | Oc1ccccc1C1CC(c2cccc(F)c2)=NN1 (stereo not shown) [Entry 31, 2-(3-(3-Fluorophenyl)-4,5-dihydro-1H-pyrazol-5-yl)phenol]
 | > 5000 nM | 1000 to 5000 nM |  | Oc1ccccc1C1CC(c2ccccc2)=NN1 (stereo not shown) [Entry 34, 2-(3-Phenyl-4,5-dihydro-1H-pyrazol-5-yl)phenol]
 | < 1000 nM | < 1000 nM |  | Nc1ccccc1C1CC(c2ccccc2)=NN1 (stereo not shown) [Entry 37, 2-(3-Phenyl-4,5-dihydro-1H-pyrazol-5-yl)aniline]
 | < 1000 nM | < 1000 nM |  | Cc1ccc(O)c(C2CC(c3ccccc3)=NN2)c1 (stereo not shown) [Entry 39, 4-Methyl-2-(3-phenyl-4,5-dihydro-1H-pyrazol-5-yl)phenol]
 | < 1000 nM | < 1000 nM |  | Oc1ccccc1C1CC(c2ccc(OC(F)(F)F)cc2)=NN1 (stereo not shown) [Entry 41, 2-(3-(4-(Trifluoromethoxy)phenyl)-4,5-dihydro-1H-pyrazol-5-yl)phenol]
 | < 1000 nM | < 1000 nM |  | COc1ccc(C2=NNC(c3ccccc3O)C2)cc1 (stereo not shown) [Entry 42, 2-(3-(4-Methoxyphenyl)-4,5-dihydro-1H-pyrazol-5-yl)phenol]
